Source: ChEMBL document CHEMBL5390204, “Persephacin Is a Broad-Spectrum Antifungal Aureobasidin Metabolite That Overcomes Intrinsic Resistance in Aspergillus fumigatus” (J Nat Prod, 2023)
In brackets after ≈: the same amount, converted by molar mass. Activity calls are given as the source filed them. The rule behind the calls is not given here.

Tests used:
Candida albicans [1] = experiment: Antifungal activity against Candida albicans SC5314 infected in pig cornea assessed as suppression of fungal growth at 5 % administered post fungal infection measured after 4 days by microscopic analysis; type: functional, organism-based; details: time 4.0 day
Aspergillus fumigatus [2] = experiment: Antifungal activity against Aspergillus fumigatus NRRL5109 infected in pig cornea assessed as suppression of fungal growth at 5 % administered post fungal infection measured after 4 days by microscopic analysis; type: functional, organism-based; details: time 4.0 day
Candida albicans [3] = experiment: Antifungal activity against fluconazole-resistant Candida albicans SC5314 infected in pig cornea assessed as suppression of fungal growth at 5 % administered post fungal infection measured after 4 days by microscopic analysis; type: functional, organism-based; details: time 4.0 day
Aspergillus fumigatus [4] = experiment: Antifungal activity against Aspergillus fumigatus NRRL5109 infected in pig cornea assessed as suppression of fungal growth at 2 % administered post fungal infection measured after 4 days by microscopic analysis; type: functional, organism-based; details: time 4.0 day
Candida albicans [5] = experiment: Antifungal activity against fluconazole-resistant Candida albicans SC5314 infected in pig cornea assessed as suppression of fungal growth at 2 % administered post fungal infection measured after 4 days by microscopic analysis; type: functional, organism-based; details: time 4.0 day
Candida tropicalis [6] = experiment: Antifungal activity against Candida tropicalis ATCC750 (Y-12699) assessed as reduction in fungal viability incubated for 48 hrs by microplate reader analysis; type: functional
Aspergillus fumigatus [7] = experiment: Antifungal activity against Aspergillus fumigatus NRRL5109 assessed as reduction in fungal viability incubated for 48 hrs by microplate reader analysis; type: functional
Candida parapsilosis [8] = experiment: Antifungal activity against Candida parapsilosis ATCC 22019 (Y-12969) assessed as reduction in fungal growth incubated for 48 hrs by microplate reader analysis; type: functional; details: Lodderomyces parapsilosis
Cryptococcus neoformans [9] = experiment: Antifungal activity against Cryptococcus neoformans H99 assessed as reduction in fungal growth incubated for 48 hrs by microplate reader analysis; type: functional
Aspergillus fumigatus [10] = experiment: Antifungal activity against Aspergillus fumigatus NRRL6113 assessed as reduction in fungal growth incubated for 48 hrs by microplate reader analysis; type: functional
Mucor circinelloides [11] = experiment: Antifungal activity against Mucor circinelloides 235C7 assessed as reduction in fungal viability incubated for 48 hrs by microplate reader analysis; type: functional
Aspergillus fumigatus [12] = experiment: Antifungal activity against Aspergillus fumigatus NRRL5109 assessed as reduction in fungal growth incubated for 48 hrs by microplate reader analysis; type: functional
Curvularia lunata [13] = experiment: Antifungal activity against Curvularia lunata NRRL6409 assessed as reduction in fungal viability incubated for 48 hrs by microplate reader analysis; type: functional
Aspergillus niger [14] = experiment: Antifungal activity against Aspergillus niger FGSC A732 assessed as reduction in fungal growth incubated for 48 hrs by microplate reader analysis; type: functional
Candida albicans [15] = experiment: Antifungal activity against Candida albicans ATCC 10231 assessed as reduction in fungal growth incubated for 48 hrs by microplate reader analysis; type: functional
Candida albicans [16] = experiment: Antifungal activity against Candida albicans SC5314 assessed as reduction in fungal viability incubated for 48 hrs by microplate reader analysis; type: functional
Candida tropicalis [17] = experiment: Antifungal activity against Candida tropicalis ATCC750 (Y-12699) assessed as reduction in fungal growth incubated for 48 hrs by microplate reader analysis; type: functional
Mucor circinelloides [18] = experiment: Antifungal activity against Mucor circinelloides 235C7 assessed as reduction in fungal growth incubated for 48 hrs by microplate reader analysis; type: functional
Aspergillus fumigatus [19] = experiment: Antifungal activity against Aspergillus fumigatus MYA 3627 assessed as reduction in fungal viability incubated for 48 hrs by microplate reader analysis; type: functional
Fusarium solani [20] = experiment: Antifungal activity against Fusarium solani 243G2 assessed as reduction in fungal viability incubated for 48 hrs by microplate reader analysis; type: functional
Paecilomyces lilacinus [21] = experiment: Antifungal activity against Paecilomyces lilacinus 165E10 assessed as reduction in fungal viability incubated for 48 hrs by microplate reader analysis; type: functional, Purpureocillium lilacinum
Curvularia lunata [22] = experiment: Antifungal activity against Curvularia lunata NRRL6409 assessed as reduction in fungal growth incubated for 48 hrs by microplate reader analysis; type: functional
Hamigera insecticola [23] = experiment: Antifungal activity against Hamigera insecticola NRRL35442 assessed as reduction in fungal viability incubated for 48 hrs by microplate reader analysis; type: functional
Cryptococcus neoformans [24] = experiment: Antifungal activity against Cryptococcus neoformans H99 assessed as reduction in fungal viability incubated for 48 hrs by microplate reader analysis; type: functional
Candida albicans [25] = experiment: Antifungal activity against Candida albicans ATCC 10231 assessed as reduction in fungal viability incubated for 48 hrs by microplate reader analysis; type: functional
Pichia kudriavzevii [26] = experiment: Antifungal activity against Candida krusei ATCC 6258 (Y-7179) assessed as reduction in fungal viability incubated for 48 hrs by microplate reader analysis; type: functional
Pichia kudriavzevii [27] = experiment: Antifungal activity against Candida krusei ATCC 6258 (Y-7179) assessed as reduction in fungal growth incubated for 48 hrs by microplate reader analysis; type: functional
Aspergillus niger [28] = experiment: Antifungal activity against Aspergillus niger FGSC A732 assessed as reduction in fungal viability incubated for 48 hrs by microplate reader analysis; type: functional
Candida parapsilosis [29] = experiment: Antifungal activity against Candida parapsilosis ATCC 22019 (Y-12969) assessed as reduction in fungal viability incubated for 48 hrs by microplate reader analysis; type: functional
Aspergillus flavus [30] = experiment: Antifungal activity against Aspergillus flavus NRRL485 assessed as reduction in fungal viability incubated for 48 hrs by microplate reader analysis; type: functional
Aspergillus terreus [31] = experiment: Antifungal activity against Aspergillus terreus 191A6 assessed as reduction in fungal growth incubated for 48 hrs by microplate reader analysis; type: functional
Rhizopus arrhizus [32] = experiment: Antifungal activity against Rhizopus oryzae FGSC 9543 assessed as reduction in fungal growth incubated for 48 hrs by microplate reader analysis; type: functional
Rhizopus arrhizus [33] = experiment: Antifungal activity against Rhizopus oryzae FGSC 9543 assessed as reduction in fungal viability incubated for 48 hrs by microplate reader analysis; type: functional
Aspergillus flavus [34] = experiment: Antifungal activity against Aspergillus flavus NRRL485 assessed as reduction in fungal growth incubated for 48 hrs by microplate reader analysis; type: functional
Aspergillus terreus [35] = experiment: Antifungal activity against Aspergillus terreus 191A6 assessed as reduction in fungal viability incubated for 48 hrs by microplate reader analysis; type: functional
Paecilomyces lilacinus [36] = experiment: Antifungal activity against Paecilomyces lilacinus 165E10 assessed as reduction in fungal growth incubated for 48 hrs by microplate reader analysis; type: functional; details: Purpureocillium lilacinum
Candida albicans [37] = experiment: Antifungal activity against Candida albicans SC5314 assessed as reduction in fungal growth incubated for 48 hrs by microplate reader analysis; type: functional
Aspergillus fumigatus [38] = experiment: Antifungal activity against Aspergillus fumigatus MYA 3627 assessed as reduction in fungal growth incubated for 48 hrs by microplate reader analysis; type: functional
Aspergillus fumigatus [39] = experiment: Antifungal activity against Aspergillus fumigatus NRRL6113 assessed as reduction in fungal viability incubated for 48 hrs by microplate reader analysis; type: functional
Fusarium solani [40] = experiment: Antifungal activity against Fusarium solani 243G2 assessed as reduction in fungal growth incubated for 48 hrs by microplate reader analysis; type: functional
Hamigera insecticola [41] = experiment: Antifungal activity against Hamigera insecticola NRRL35442 assessed as reduction in fungal growth incubated for 48 hrs by microplate reader analysis; type: functional

## C[C@@H]1C/C=C/C=C/C=C/C=C/[C@H](O[C@@H]2O[C@H](C)[C@@H](O)[C@H](N)[C@@H]2O)C[C@@H]2O[C@](O)(C[C@@H](O)C[C@H]3O[C@@H]3/C=C/C(=O)O1)C[C@H](O)[C@H]2C(=O)O
Candida albicans [1]
  Activity: Active
Aspergillus fumigatus [2]
  Activity: Active
Candida albicans [3]
  Activity: Active

## OC(Cn1cncn1)(Cn1cncn1)c1ccc(F)cc1F
Aspergillus fumigatus [4]
  Activity: inactive
Candida albicans [5]
  Activity: inactive

## CCC(C)n1ncn(-c2ccc(N3CCN(c4ccc(OCC5COC(Cn6cncn6)(c6ccc(Cl)cc6Cl)O5)cc4)CC3)cc2)c1=O (centres undefined) [ITRACONAZOLE]
Candida tropicalis [6]
  MFC<=99.9: >10 µM
Aspergillus fumigatus [7]
  MFC<=99.9: 10 µM (≈ 7.06 µg/mL)
Candida parapsilosis [8]
  MFC: 5 µM (≈ 3.53 µg/mL)
  MIC80: 0.6 µM (≈ 0.423 µg/mL)
Cryptococcus neoformans [9]
  MFC: > 10 µM
  MIC80: 0.6 µM (≈ 0.423 µg/mL)
Aspergillus fumigatus [10]
  MFC: > 10 µM
  MIC80: 1.3 µM (≈ 0.917 µg/mL)
Mucor circinelloides [11]
  MFC<=99.9: >10 µM
Aspergillus fumigatus [12]
  MFC: 10 µM (≈ 7.06 µg/mL)
  MIC80: 1.3 µM (≈ 0.917 µg/mL)
Curvularia lunata [13]
  MFC<=99.9: 5 µM (≈ 3.53 µg/mL)
Aspergillus niger [14]
  MFC: 5 µM (≈ 3.53 µg/mL)
  MIC80: 2.5 µM (≈ 1.76 µg/mL)
Candida albicans [15]
  MFC: > 10 µM
  MIC80: 0.06 µM (≈ 0.0423 µg/mL)
Candida albicans [16]
  MFC<=99.9: >10 µM
Candida tropicalis [17]
  MFC: > 10 µM
  MIC80: 0.6 µM (≈ 0.423 µg/mL)
Mucor circinelloides [18]
  MFC: > 10 µM
  MIC80: 10 µM (≈ 7.06 µg/mL)
Aspergillus fumigatus [19]
  MFC<=99.9: >10 µM
Fusarium solani [20]
  MFC<=99.9: 5 µM (≈ 3.53 µg/mL)
Paecilomyces lilacinus [21]
  MFC<=99.9: 1.3 µM (≈ 0.917 µg/mL)
Curvularia lunata [22]
  MFC: 5 µM (≈ 3.53 µg/mL)
  MIC80: 2.5 µM (≈ 1.76 µg/mL)
Hamigera insecticola [23]
  MFC<=99.9: 1.35 µM (≈ 0.953 µg/mL)
Cryptococcus neoformans [24]
  MFC<=99.9: >10 µM
Candida albicans [25]
  MFC<=99.9: >10 µM
Pichia kudriavzevii [26]
  MFC<=99.9: 2.5 µM (≈ 1.76 µg/mL)
Pichia kudriavzevii [27]
  MFC: 2.5 µM (≈ 1.76 µg/mL)
  MIC80: 0.6 µM (≈ 0.423 µg/mL)
Aspergillus niger [28]
  MFC<=99.9: 5 µM (≈ 3.53 µg/mL)
Candida parapsilosis [29]
  MFC<=99.9: 5 µM (≈ 3.53 µg/mL)
Aspergillus flavus [30]
  MFC<=99.9: 0.6 µM (≈ 0.423 µg/mL)
Aspergillus terreus [31]
  MFC: 2.5 µM (≈ 1.76 µg/mL)
  MIC80: 0.6 µM (≈ 0.423 µg/mL)
Rhizopus arrhizus [32]
  MFC: 0.6 µM (≈ 0.423 µg/mL)
  MIC80: 0.6 µM (≈ 0.423 µg/mL)
Rhizopus arrhizus [33]
  MFC<=99.9: 0.6 µM (≈ 0.423 µg/mL)
Aspergillus flavus [34]
  MFC: 0.6 µM (≈ 0.423 µg/mL)
  MIC80: 0.2 µM (≈ 0.141 µg/mL)
Aspergillus terreus [35]
  MFC<=99.9: 2.5 µM (≈ 1.76 µg/mL)
Paecilomyces lilacinus [36]
  MFC: 1.3 µM (≈ 0.917 µg/mL)
  MIC80: 2.5 µM (≈ 1.76 µg/mL)
Candida albicans [37]
  MFC: > 10 µM
  MIC80: 0.135 µM (≈ 0.0953 µg/mL)
Aspergillus fumigatus [38]
  MFC: > 10 µM
  MIC80: 5 µM (≈ 3.53 µg/mL)
Aspergillus fumigatus [39]
  MFC<=99.9: >10 µM
Fusarium solani [40]
  MFC: 5 µM (≈ 3.53 µg/mL)
  MIC80: 2.5 µM (≈ 1.76 µg/mL)
Hamigera insecticola [41]
  MFC: 1.35 µM (≈ 0.953 µg/mL)
  MIC80: 0.3 µM (≈ 0.212 µg/mL)
